Paper PMC9356058, “Homocysteine-targeting compounds as a new treatment strategy for diabetic wounds via inhibition of the histone methyltransferase SET7/9” (Experimental & Molecular Medicine, 2022)

Target: T1, SET7/9 (Homo sapiens, UniProt Q8WTS6)
T1 sequence (Q8WTS6 1-366): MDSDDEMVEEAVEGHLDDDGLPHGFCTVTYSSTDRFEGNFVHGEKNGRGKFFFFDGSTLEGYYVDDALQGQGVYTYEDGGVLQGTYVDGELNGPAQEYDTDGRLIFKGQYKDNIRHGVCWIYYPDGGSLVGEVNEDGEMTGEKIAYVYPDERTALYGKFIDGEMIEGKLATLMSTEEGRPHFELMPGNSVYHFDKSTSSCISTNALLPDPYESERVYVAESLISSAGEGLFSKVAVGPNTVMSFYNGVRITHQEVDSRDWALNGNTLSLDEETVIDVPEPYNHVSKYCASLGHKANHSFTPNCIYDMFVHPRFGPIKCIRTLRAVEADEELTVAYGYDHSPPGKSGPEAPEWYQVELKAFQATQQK
Assay: fluorescence polarization, displacement of SAM-binding site probe
Parameters: gene SETD7; SET7/9 (human recombinant) assay enzyme

Nc1ncnc2c1ncn2[C@@H]1O[C@H](C[C@@H](N)CC[C@H](N)C(=O)O)[C@@H](O)[C@H]1O [Sine, 5’-deoxy-5’-(1,4-diamino-4-carboxybutyl)adenosine]
IC50: 6.17 µM
